Experimental findings from patent publication US20100261710A1, “HDAC Inhibitors” (ARQULE, INC., priority 2007, published 2010) are described below.

Structures are written as SMILES. Where two headings read alike, the source gives them in different places.

The test system of one data set is Hut78 cells. Kind of data set: MTS cell viability assay, Hut78. The data set is classed as cell-based. The note with it: Homo sapiens; Hut78, 72 hr; read-out: Hut78, IG50, MTS. On the procedure: (§1) The MTS cell viability assay was used to determine the potency of proliferation inhibitor with. MTS measures mitochondrial dehydrogenase activity and serves as surrogate readout for the number of viable cells.
(§2) For MTS assay, cells were plated in 96-well plates at 2000 cells per well and incubated in the presence of compounds for 72 hr. MTS was added to each well as instructed by manufacture (Promega) and plates were incubated for 4 h at 37° C. The absorbance of each well was measured at 490 nm using a microplate reader.

Another data set deals with T1, HDAC6 (Homo sapiens, UniProt Q9UBN7).
T1 sequence (Q9UBN7 1-1215): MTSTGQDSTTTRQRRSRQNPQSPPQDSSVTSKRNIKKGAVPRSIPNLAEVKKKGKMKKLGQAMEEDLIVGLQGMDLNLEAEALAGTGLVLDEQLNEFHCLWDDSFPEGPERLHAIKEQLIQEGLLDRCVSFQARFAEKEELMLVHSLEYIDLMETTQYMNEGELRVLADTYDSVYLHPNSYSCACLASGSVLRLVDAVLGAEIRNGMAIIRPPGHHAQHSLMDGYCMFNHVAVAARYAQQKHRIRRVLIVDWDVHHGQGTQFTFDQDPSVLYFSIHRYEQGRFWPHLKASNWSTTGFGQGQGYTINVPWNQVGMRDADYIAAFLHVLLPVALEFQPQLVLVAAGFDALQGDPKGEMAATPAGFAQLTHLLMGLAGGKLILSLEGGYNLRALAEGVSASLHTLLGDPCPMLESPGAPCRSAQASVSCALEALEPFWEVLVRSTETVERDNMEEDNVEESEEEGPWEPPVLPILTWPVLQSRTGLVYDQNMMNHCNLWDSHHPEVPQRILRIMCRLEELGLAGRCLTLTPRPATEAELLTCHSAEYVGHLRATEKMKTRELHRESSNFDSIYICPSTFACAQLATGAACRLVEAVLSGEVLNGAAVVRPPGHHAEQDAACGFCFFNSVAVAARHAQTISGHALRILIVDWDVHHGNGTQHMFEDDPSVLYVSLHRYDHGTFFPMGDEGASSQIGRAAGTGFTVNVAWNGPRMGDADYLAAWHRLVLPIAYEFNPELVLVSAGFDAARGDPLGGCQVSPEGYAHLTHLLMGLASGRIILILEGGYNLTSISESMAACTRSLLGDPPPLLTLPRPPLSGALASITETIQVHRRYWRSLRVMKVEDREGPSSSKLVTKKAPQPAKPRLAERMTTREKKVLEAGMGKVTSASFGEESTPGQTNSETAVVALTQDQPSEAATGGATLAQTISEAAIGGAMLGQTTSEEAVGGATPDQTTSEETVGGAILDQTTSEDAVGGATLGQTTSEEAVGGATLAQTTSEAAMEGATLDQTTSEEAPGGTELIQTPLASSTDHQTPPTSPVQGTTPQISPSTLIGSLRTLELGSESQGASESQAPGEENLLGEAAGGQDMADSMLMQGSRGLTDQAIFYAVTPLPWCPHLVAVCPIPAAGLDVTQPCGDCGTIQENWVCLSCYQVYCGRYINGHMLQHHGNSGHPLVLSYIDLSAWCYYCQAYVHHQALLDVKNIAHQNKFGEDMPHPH
The data set can be described thus: HDAC isoform assay, HDAC6.

In a further data set the test system is HH cells. The data set can be described thus: MTS cell viability assay, HH. It is filed as cell-based. The note with it: Homo sapiens, 72 hr, read-out: HH, IG50, MTS. The procedure: The MTS cell viability assay was used to determine the potency of proliferation inhibitor with. MTS measures mitochondrial dehydrogenase activity and serves as surrogate readout for the number of viable cells. The protocol described below is based upon the “CellTiter 96 Aqueous Non-Radioactive Cell Proliferation Assay” sold by Promega (Technical Bulletin No. 169).
as §2
(Tetrazolium dyes change colour on reduction, which living cells bring about.)

For data set [1], the system named is HDACs (nuclear HeLa extract). The data set can be described thus: pan-HDAC fluorescent biochemical assay with nuclear HeLa extract. Conditions: HDAC peptide substrate, 60 min at 37° C. The procedure: Substrate was synthesized in house. Stocks were prepared in DMSO (10 mM).
Compound working solution: Compounds dissolved in assay buffer at 4× Screening concentration. Activator solution: Trypsin (10 mg/mL) diluted 1:1600 in Assay Buffer containing 4 μM TSA.
Total reaction Volume: 40 μL
Reaction was allowed to run for 60 minutes at 37° C.
2. Combine in a white ½ area well plate: 10 μl of 4× compound (or buffer), 15 μl of substrate and 15 μl of HeLa extract. Mix well
3. Incubate at 37° C. for 60 min.
4. Prepare Activator solution. Dilute Trypsin 1:1600 in Assay Buffer+4μM TSA. 20 μl is needed per assay point.
5. Add 20 μl of prepared activator solution and mix thoroughly.
The hydroxamic-acid based compounds of the present invention were tested in the biochemical assay for their pan-HDAC inhibitory activity.

Another data set concerns the target T2, HDAC8 (Homo sapiens, UniProt Q9BY41).
T2 sequence (Q9BY41 1-377): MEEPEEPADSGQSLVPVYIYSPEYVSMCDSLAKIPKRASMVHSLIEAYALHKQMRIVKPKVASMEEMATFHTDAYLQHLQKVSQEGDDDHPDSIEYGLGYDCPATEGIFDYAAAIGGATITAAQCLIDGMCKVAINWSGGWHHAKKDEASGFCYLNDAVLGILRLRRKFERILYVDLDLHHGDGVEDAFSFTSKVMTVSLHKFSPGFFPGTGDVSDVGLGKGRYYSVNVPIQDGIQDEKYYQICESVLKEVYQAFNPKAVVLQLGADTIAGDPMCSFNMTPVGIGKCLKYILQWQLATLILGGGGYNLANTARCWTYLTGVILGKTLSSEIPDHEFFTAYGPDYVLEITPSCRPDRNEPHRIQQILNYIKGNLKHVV
The data set can be described thus: HDAC isoform assay, HDAC8.

Another data set concerns MJ cells. The data set can be described thus: MTS cell viability assay, MJ. It is filed as cell-based. The note with it: 72 hr, read-out: MJ, IG50, MTS. On the procedure: as §1, §2
The next data set has as its system HCT-116 cells. Kind of data set: MTS cell viability assay, HCT-116. The data set is classed as cell-based. The note with it: Homo sapiens. The procedure:
as §1, §2

The target in a further data set is HDAC5 (Homo sapiens, UniProt Q9UQL6). Kind of data set: HDAC isoform assay, HDAC5.
The target of another data set is T3, HDAC2 (Homo sapiens, UniProt Q92769).
T3 construct: purchased BioMol
The data set can be described thus: HDAC isoform assay, HDAC2. It is filed as biochemical. The note with it: substrate KI-177; read-out: HDAC2, IC50, ELISA (KI-177). On the technique in general: An ELISA detects its analyte on a solid surface through an enzyme-linked reagent.

The next data set addresses T4, HDAC3 (Homo sapiens, UniProt O15379).
T4 construct: purchased BioMol
Kind of data set: HDAC isoform assay, HDAC3. It is filed as biochemical.

The mark [2] stands for this setting: HCT-116, 72 h, read-out: HCT-116, IG50, MTS (uM).
Where [3] appears, read: HCT-116, 72 hr, read-out: HCT-116, IG50, MTS.
[4] abbreviates: substrate KI-177, read-out: HDAC3, IC50, ELISA (KI-177).

T3 sequence (Q92769 whole entry): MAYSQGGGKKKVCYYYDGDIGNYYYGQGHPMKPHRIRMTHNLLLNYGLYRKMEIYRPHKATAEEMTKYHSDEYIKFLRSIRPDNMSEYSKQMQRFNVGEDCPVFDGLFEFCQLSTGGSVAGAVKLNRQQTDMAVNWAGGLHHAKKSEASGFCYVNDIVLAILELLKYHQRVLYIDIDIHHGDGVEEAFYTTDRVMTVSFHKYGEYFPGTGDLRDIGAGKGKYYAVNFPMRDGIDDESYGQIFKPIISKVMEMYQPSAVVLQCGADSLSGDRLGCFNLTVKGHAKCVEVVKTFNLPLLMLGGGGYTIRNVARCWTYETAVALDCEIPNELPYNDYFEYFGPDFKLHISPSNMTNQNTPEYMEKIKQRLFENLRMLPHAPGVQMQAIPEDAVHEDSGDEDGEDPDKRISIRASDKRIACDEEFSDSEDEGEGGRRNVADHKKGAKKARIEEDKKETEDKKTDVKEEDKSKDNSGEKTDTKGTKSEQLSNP
Chain of HDAC5 (Q9UQL6 whole entry, canonical isoform): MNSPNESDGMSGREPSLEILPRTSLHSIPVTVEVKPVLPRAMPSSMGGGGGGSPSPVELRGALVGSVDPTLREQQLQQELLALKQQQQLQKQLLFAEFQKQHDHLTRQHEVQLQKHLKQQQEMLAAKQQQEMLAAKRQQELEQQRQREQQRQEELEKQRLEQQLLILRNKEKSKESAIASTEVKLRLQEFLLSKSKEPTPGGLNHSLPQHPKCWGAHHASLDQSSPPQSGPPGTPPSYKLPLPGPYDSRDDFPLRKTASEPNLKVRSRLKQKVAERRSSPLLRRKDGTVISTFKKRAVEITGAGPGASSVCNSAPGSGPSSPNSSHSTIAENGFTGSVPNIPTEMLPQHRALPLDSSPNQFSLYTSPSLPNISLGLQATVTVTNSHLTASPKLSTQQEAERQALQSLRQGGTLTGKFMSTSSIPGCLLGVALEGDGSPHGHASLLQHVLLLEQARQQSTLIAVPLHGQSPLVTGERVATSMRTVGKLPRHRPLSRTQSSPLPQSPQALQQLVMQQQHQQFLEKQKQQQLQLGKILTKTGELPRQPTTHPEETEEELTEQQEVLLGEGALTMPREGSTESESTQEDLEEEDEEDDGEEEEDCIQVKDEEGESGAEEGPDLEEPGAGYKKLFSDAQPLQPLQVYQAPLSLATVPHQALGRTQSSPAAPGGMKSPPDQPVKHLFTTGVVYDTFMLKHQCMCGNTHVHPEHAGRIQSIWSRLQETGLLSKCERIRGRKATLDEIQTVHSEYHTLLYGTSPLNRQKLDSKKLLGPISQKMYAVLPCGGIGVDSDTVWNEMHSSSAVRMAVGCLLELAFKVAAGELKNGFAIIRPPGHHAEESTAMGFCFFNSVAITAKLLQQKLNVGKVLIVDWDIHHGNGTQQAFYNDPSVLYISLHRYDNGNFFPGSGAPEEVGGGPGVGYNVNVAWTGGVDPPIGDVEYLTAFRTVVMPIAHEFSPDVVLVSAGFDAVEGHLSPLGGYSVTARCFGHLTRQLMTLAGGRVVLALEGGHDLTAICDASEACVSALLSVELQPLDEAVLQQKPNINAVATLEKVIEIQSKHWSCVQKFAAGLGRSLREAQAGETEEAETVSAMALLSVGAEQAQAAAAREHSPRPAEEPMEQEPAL
T4 sequence (O15379 whole entry): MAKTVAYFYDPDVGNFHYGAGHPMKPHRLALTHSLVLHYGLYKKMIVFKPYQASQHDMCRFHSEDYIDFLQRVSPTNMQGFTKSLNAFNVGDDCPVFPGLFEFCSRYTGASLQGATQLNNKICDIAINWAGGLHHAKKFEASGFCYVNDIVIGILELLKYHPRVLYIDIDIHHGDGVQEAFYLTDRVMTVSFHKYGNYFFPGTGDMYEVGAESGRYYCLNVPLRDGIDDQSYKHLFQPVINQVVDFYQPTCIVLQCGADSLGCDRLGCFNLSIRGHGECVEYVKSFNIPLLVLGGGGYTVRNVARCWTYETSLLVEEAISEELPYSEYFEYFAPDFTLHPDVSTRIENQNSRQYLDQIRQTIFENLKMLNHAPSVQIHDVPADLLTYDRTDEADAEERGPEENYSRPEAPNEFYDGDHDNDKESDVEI
T4 sequence (O75376 395-489 partner limits assumed): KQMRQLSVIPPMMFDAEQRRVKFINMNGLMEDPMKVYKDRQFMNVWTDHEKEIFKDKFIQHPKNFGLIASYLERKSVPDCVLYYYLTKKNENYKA
Procedure for HDAC3: The assay measures the ability of a small molecule to inhibit deacetylation of the substrate. Activator reagent recognizes the substrate only if the lysine has been deacetylated.
This homogeneous assay in performed in the same well without washing steps. The HDAC source, nuclear HeLa extract, is incubated with substrate in the presence of an inhibitor compound. At the end of the reaction time, activator solution, containing Trypsin and TSA, is added to stop the deacetylation reaction, and cleave the amino-coumarin from the deacetylated substrate. The plate is then read on either a Perkin Elmer Victor or Envision system using Umbilliferone filter set. […] The signal is directly proportional to the activity of HDACs and compound inhibition of HDAC is monitored by a decrease in signal.

Take `O=C(CCCCCNC(=O)c1cn2c3c(cccc13)CCC2)NO` [compound 2, N-[6-(hydroxyamino)-6-oxohexyl]-5,6-dihydro-4H-pyrrolo[3,2,1-ij]quinoline-1-carboxamide]: the IC50 in the data set with Hut78 cells is 2.92 µM; on HDAC6 it was 0.0672 µM; in the data set with HH cells, 1.72 µM; in data set [1], 0.0574 µM; against HDAC8 it was 1.09 µM; in the data set with MJ cells, 5 µM. Also, the IC50 amounted to 0.63 µM in the data set with HCT-116 cells (setting [2]), 0.0911 µM against HDAC5, 1.94 µM on HDAC2 and 0.0136 µM against HDAC3.

As a reminder, the melting point is the temperature, or range, at which the solid turns liquid. `O=C(CCCCCCNC(=O)c1cn2c3c(cccc13)CCC2)NO` [compound 3, N-[7-(hydroxyamino)-7-oxoheptyl]-5,6-dihydro-4H-pyrrolo[3,2,1-ij]quinoline-1-carboxamide] gave a melting point of 205 to 206 °C. The IC50 with Hut78 cells was 0.24 µM. Besides, the IC50 on HDAC6 stood at 0.158 µM. For the same compound, in the data set on HH cells, the IC50 was 0.111 µM. The same compound registered an IC50 in [1] of 0.0698 µM. Also, on HDAC8, the IC50 amounted to 0.408 µM. In addition, the IC50 in the data set on MJ cells was 0.12 µM. In addition, in the data set on HCT-116 cells (setting [2]), the IC50 worked out at 0.215 µM. The compound also registered an IC50 at HDAC5 of 0.095 µM. For the same compound, the IC50 on HDAC2 amounted to 2.46 µM. This compound had an IC50 against HDAC3 of 0.0457 µM.

In the case of `O=C(CCCCCNC(=O)C(=O)c1cn2c3c(cccc13)CCC2)NO` [compound 8, 6-{[5,6-dihydro-4H-pyrrolo[3,2,1-ij]quinolin-1-yl(oxo)acetyl]amino}-N-hydroxyhexanamide], the melting point was 150 to 155 °C. At HDAC6, the IC50 came to 0.0776 µM. Also, in the data set on HH cells, the IC50 amounted to 2.62 µM. The same compound gave an IC50 in [1] of 0.115 µM. At HDAC8, this compound gave an IC50 of 9.24 µM. Moreover, in the data set with MJ cells, the IC50 stood at 7.68 µM. Further, the IC50 in the data set on HCT-116 cells (setting [2]) was determined as 0.737 µM. Besides, the IC50 at HDAC5 is 0.163 µM. Also, the IC50 at HDAC2 was 1.8 µM. The IC50 on HDAC3 came out at 0.0204 µM.

On to `O=C(CCCNC(=O)C(=O)c1cn2c3c(cccc13)CCC2)NO` [compound 9, 4-{[5,6-dihydro-4H-pyrrolo[3,2,1-ij]quinolin-1-yl(oxo)acetyl]amino}-N-hydroxybutanamide], for which the melting point fell in the range of 95 to 97 °C. The IC50 in the data set on Hut78 cells was 0.903 µM. At HDAC6, the IC50 is 0.692 µM. Also, the IC50 in the data set with HH cells worked out at 0.365 µM. In addition, in data set [1], the IC50 is 0.602 µM. The IC50 against HDAC8 came out at 10 µM. The IC50 in the data set on MJ cells amounted to 4.11 µM. Besides, the IC50 with HCT-116 cells (setting [2]) was found to be 5.02 µM. At HDAC2, the IC50 was 3 µM. Besides, at HDAC3, the IC50 amounted to 0.63 µM.

For the compound `O=C(CCCCCCNC(=O)Nc1cn2c3c(cccc13)CCC2)NO` [compound 11, 7-[(5,6-dihydro-4H-pyrrolo[3,2,1-ij]quinolin-1-ylcarbamoyl)amino]-N-hydroxyheptanamide], the melting point fell in the range of 185 to 187 °C. Also, the IC50 in the data set on Hut78 cells was determined as 0.181 µM. The IC50 on HDAC6 came to 0.0664 µM. The IC50 in the data set on HH cells was determined as 0.094 µM. The IC50 in data set [1] was 0.0279 µM. On HDAC8, this compound showed an IC50 of 0.492 µM. In addition, the IC50 with MJ cells stood at 0.47 µM. Further, the IC50 with HCT-116 cells (setting [3]) came out at 0.492 µM. The IC50 at HDAC5 came to 0.353 µM. Besides, the IC50 at HDAC2 is 1.34 µM. Further, the IC50 on HDAC3 (setting [4]) worked out at 0.023 µM.

As to `O=C(CCCCCCNC(=O)C(=O)c1cn2c3c(cccc13)CCC2)NO` [compound 12, 7-{[5,6-dihydro-4H-pyrrolo[3,2,1-ij]quinolin-1-yl(oxo)acetyl]amino}-N-hydroxyheptanamide], the melting point is 158 to 159 °C. The IC50 in the data set with Hut78 cells stood at 0.174 µM. The IC50 on HDAC6 is 0.134 µM. In addition, in the data set with HH cells, the IC50 is 0.045 µM. The IC50 in [1] worked out at 0.126 µM. The compound also gave an IC50 against HDAC8 of 6.42 µM. The IC50 in the data set with MJ cells is 0.13 µM. Besides, in the data set on HCT-116 cells (setting [3]), the IC50 is 0.701 µM. The same compound registered an IC50 against HDAC5 of 0.26 µM. Moreover, the IC50 on HDAC2 came to 2.32 µM. Besides, at HDAC3 (setting [4]), the IC50 came out at 0.0876 µM.

`O=C(CCCCCNC(=O)Nc1cn2c3c(cccc13)CCC2)NO` [compound 13, 6-[(5,6-dihydro-4H-pyrrolo[3,2,1-ij]quinolin-1-ylcarbamoyl)amino]-N-hydroxyhexanamide] gave a melting point of 161 to 163 °C. The IC50 with Hut78 cells was 1.27 µM. On HDAC6, the IC50 came out at 0.0632 µM. In the data set with HH cells, the IC50 worked out at 1.02 µM. Further, in data set [1], the IC50 was 0.0322 µM. In addition, the IC50 against HDAC8 amounted to 0.918 µM. Besides, in the data set with HCT-116 cells (setting [3]), the IC50 turned out to be 0.636 µM. Besides, the IC50 at HDAC5 amounted to 0.201 µM. Further, the IC50 on HDAC2 stood at 1.78 µM. Moreover, the IC50 at HDAC3 (setting [4]) was 0.0205 µM.
